Data on 4 compounds can be found in patent publication US10907159B2, “Methods of treating cancer by inhibition of DNA repair proteins using antisense based therapies” (SARISSA INC., priority 2015, dated 2021).

Type in all cases: cell-based, human
Series [1] concerns A549b cells. The series is described as follows: Proliferation of A549b cells after OLIGO/siRNA transfection (cell counting). As to conditions: for relative proliferation: FIG. 12. The procedure: Cultured cell lines were maintained in minimum essential medium a with nucleosides plus 10% fetal bovine serum and penicillin (50 units/mL)/streptomycin (50 mg/L) (growth medium). Cultures were incubated in a humidified atmosphere of 5% CO2 at 37° C. Cultured cell lines were maintained and cytotoxicity assays conducted as described previously (3). Rapidly proliferating cells were utilized for establishing cultures of experimental cells, which were allowed to plate overnight in 25-cm^2 flasks prior to manipulation. An established cell line of non-small-cell lung carcinoma (NSCLC), A549b, which was propagated by serial dilution from a single cell of an A549 parent cell line, was used for the establishment of antisense activity of oligonucleotides. This cell line proliferates with a mean generation time of approximately 20 hours, and is capable of forming tumours in immunodeficient mice with a take rate of greater than 90%. Therefore, this cell line is a good model system that can be used in both in vitro and in vivo experiments to test the activity of OLIGOs.
OLIGOs were introduced into cells with the use of Lipofectamine 2000 (LFA2K) (Invitrogen, Burlington, Ontario, Canada). OLIGOs were mixed with LFA2K at a ratio of 0.2 μg/ml per 10 nM OLIGO. The mixture was prepared at 11× the final concentration to which cells were exposed, so that 200 μL was added to 2 mL of medium in which cells were plated. As controls, cells were exposed to medium alone (no treatment), LFA2K alone at concentrations equivalent to those used in combination with OLIGOs (in some experiments only the maximum LFA2K concentration was used as a control), or OLIGO having no complementarity with any human mRNA. The OLIGO/LFA2K mixtures were then incubated at room temperature for 20 minutes, according to instructions supplied with the LFA2K, followed by addition of the OLIGOs to the cell medium. The OLIGO/LFA2K mix was then incubated (37° C.) on the cells for 4 hours, after which a second volume of medium was added. Cells were then incubated for 20 hours. Following this incubation, the OLIGO-containing medium was replaced with drug-free medium (i.e. medium without OLIGOs) and the cells were incubated for an additional 4 days. Following the 4-day incubation, the proliferation of the treated cells (fold-increase in cell number) was calculated as a percentage of that of control cells. Cell numbers were enumerated on an electronic particle counter (Beckman Coulter, Mississauga, ON). For the purpose of determining the anti-proliferative effect of antisense OLIGOs, the proliferation of cells treated with antisense OLIGOs was calculated as a percent of that of cells treated with an equivalent concentration of non-complementary control OLIGO (in this case OLIGO 32) mixed with an equivalent amount of LFA2K.
OLIGO-containing medium was removed and replaced with fresh medium. Cells were incubated for 4 days, at which time cell number was counted. Proliferation was calculated as a percent of non-targeting OLIGO-treated controls.
Cells were incubated for 4 days, at which time cell number was counted. Proliferation was calculated as a percent of controls.

The test system of series [2] is BRCA2 mRNA. The series is described as follows: RT-qPCR of BRCA2 mRNA in A549 cells after OLIGO transfection. As to conditions: 20 nM OLIGO, 24 hours post-transfection; FIG. 16. The procedure: (§1) Briefly, A549 cells seeded at a density of 2.0×10^5 per flask were transfected with 20 nM of OLIGO specific for each target or control OLIGO using Lipofectamine 2000 as the transfection reagent. Twenty four hours post-transfection mRNA was extracted and reverse transcribed into cDNA. RT-qPCR was performed for target mRNA levels using TaqMan reagents according to established protocols.
(Quantitative PCR measures a nucleic acid by following its amplification.)

In series [3] the test system is TS mRNA. The series is described as follows: RT-qPCR of TS mRNA in A549 cells after OLIGO transfection. Particulars: 20 nM OLIGO, 24 hours post-transfection; FIG. 16. The procedure: as §1
Series [4] relates to SKOV-3^shBRCA2 cells (low BRCA2). The series can be described thus: Co-culture model, unmixed population, proliferation. As to conditions: olaparib 2.5 μM; FIG. 29A. The procedure:
(§2) A: SKOV-3^shBRCA2 cells (low BRCA2) were mixed with SKOV-3^shControl cells (high BRCA2) at a 3:1 ratio, resulting in a primarily HRR-deficient mixed cell population. Parental and mixed populations were treated for the first time with olaparib (1° olaparib, 2.5 μM) or vehicle. Cells were re-plated at equal density 96 hours post-treatment. Parental and mixed populations were then treated a second time with olaparib (2° olaparib, 2.5 μM) or control vehicle. Ninety-six hours post-treatment, proliferation for all groups was determined based on cell counts and seeding density following 1° olaparib or vehicle treatment. White bars: 2° olaparib. Black bars: no 2° olaparib.
(§3) To mimic a heterogeneous tumor cell population that is predominantly HRR-deficient, we co-cultured SKOV-3^shBRCA2 (low BRCA2) and SKOV-3^shcontrol (high BRCA2) in a 3:1 ratio. The mixed cell population, along with unmixed SKOV-3^shBRCA2 and SKOV-3^shcontrol populations, was treated with olaparib (1° Olaparib), then counted, re-seeded and treated with olaparib a second time (2° Olaparib) (FIG. 32).

In series [5] the test system is mixed cell population SKOV-3^shBRCA2:SKOV-3^shControl 3:1. The series is described as follows: Co-culture model of BRCA2 heterogeneity, proliferation. As to conditions: 2.5 μM, FIG. 29A. The procedure:
as §2
B: SKOV-3^shBRCA2 cells (low BRCA2), SKOV-3^shControl cells (high BRCA2), and a mixed cell population (3:1, low BRCA2:high BRCA2) were transfected with control ASO or BRCA2 ASO followed by treatment with vehicle or olaparib (2.5 μM). Proliferation (percent of control ASO-treated cells) was determined 96 hours post-transfection. […]
as §3

Series [6] has as its system SKOV-3 cells. The series is described as follows: Cell proliferation assay, ASO transfection and/or drug (cell counting). Particulars: single olaparib treatment, 96 hours; FIG. 27C. The procedure:
FIG. 24 illustrates that BRCA2 inhibition sensitizes ovarian cancer and breast cancer cell lines to olaparib treatment. SKOV-3 (A) and CaOV3 (B) cells were transfected with control ASO (•) or BRCA2 ASO (∘) and then treated with three different concentrations of olaparib. Proliferation was determined by cell counting 96 hours post-transfection (*p<0.05). C: BRCA2 mRNA levels were measured by qPCR 24 hours following BRCA2 ASO transfection in SKOV-3, CaOV3, 211 H and H2052 cell lines.
E: SKOV-3 cells were transfected with control or BRCA2 ASO and then treated with olaparib 24 hours post transfection. Ninety-six hours post transfection, cells were counted, plated, and re-transfected with control ASO or BRCA2 ASO and re-treated with olaparib. Cell counts were performed 96 hours post transfection (*p<0.05). […]
A: BRCA2-wild type SKOV-3 cells (black bars), […] MCF-7 cells (white bars), and BRCA2-mutated CAPAN-1 cells (grey bars) were treated simultaneously but separately with BRCA2 ASO (20 nM). […] Ninety-six hours post-transfection, cells were counted and proliferation determined (% of proliferation after control ASO treatment).
C: SKOV-3, MCF-7 and CAPAN-1 cells were treated with two different concentrations of olaparib for 96 hours. After drug treatment they were counted and proliferation was determined as a percent of that of vehicle-treated cells. […]

The test system of series [7] is CAPAN-1 cells. The series can be described thus: Cell proliferation assay, ASO and/or drug (cell counting). As to conditions: single olaparib treatment, 96 hours, vs vehicle; FIG. 27C. The procedure: (§4) A: BRCA2-wild type SKOV-3 cells (black bars), […] MCF-7 cells (white bars), and BRCA2-mutated CAPAN-1 cells (grey bars) were treated simultaneously but separately with BRCA2 ASO (20 nM). Due to differing growth medium requirements and to avoid fluorescent label-induced changes in drug sensitivity, cells were not co-cultured. They were treated independently, at the same time with the same materials. Ninety-six hours post-transfection, cells were counted and proliferation determined (% of proliferation after control ASO treatment).
(§5) C: SKOV-3, MCF-7 and CAPAN-1 cells were treated with two different concentrations of olaparib for 96 hours. After drug treatment they were counted and proliferation was determined as a percent of that of vehicle-treated cells.
Four hours post-transfection, cells were seeded into 6 well dishes in appropriate experimental groups. Twenty-four hours post transfection, cells were treated with olaparib (Selleckchem) at three concentrations. Ninety-six hours post transfection, cells were collected and counted (Coulter Particle Counter). Proliferation was determined based on initial cell density and calculated as a percentage of ASO+vehicle treated cells.

Series [8] has as its system MCF-7 cells. The series is described as follows: Cell proliferation assay, ASO and/or olaparib (cell counting). As to conditions: single olaparib treatment, 96 hours, vs vehicle; FIG. 27C. The procedure: as §4, §5
FIG. 28 illustrates combined BRCA2 ASO and olaparib treatment decreases the proliferation of both HRR-deficient and HRR-proficient cells. […] Proliferation was determined using cell counting 96 hours post-transfection.
Four hours post-transfection, cells were seeded into 6 well dishes in appropriate experimental groups. […] Ninety-six hours post transfection, cells were collected and counted (Coulter Particle Counter). Proliferation was determined based on initial cell density and calculated as a percentage of ASO+vehicle treated cells.

The subject of series [9] is A549b cells. The series is described as follows: cells. As to conditions: Homo sapiens, curves extrapolated, unit inferred, read-out: concentration of olaparib required to inhibit proliferation of A549b cells by 50% (IC50). The procedure:
OLIGOs were introduced into cells with the use of Lipofectamine 2000 (LFA2K) (Invitrogen, Burlington, Ontario, Canada). OLIGOs were mixed with LFA2K at a ratio of 0.2 μg/ml per 10 nM OLIGO. The mixture was prepared at 11× the final concentration to which cells were exposed, so that 200 μL was added to 2 mL of medium in which cells were plated. After incubating at room temperature for 20 minutes, according to manufacturer's instructions, the OLIGOs were added to the cell medium. The OLIGO/LFA2K mix was then incubated (37° C.) on the cells for 4 hours, after which a second volume of medium was added. Cells were then incubated for 20 hours. Following this incubation, the OLIGO-containing medium was replaced with OLIGO-free medium.
For cells treated with the drug olaparib, for the purposes of determining whether inhibitory activity was enhanced by the OLIGO pretreatment, olaparib was added at this time, in concentrations of from 0.01 μM to 3 μM. At this point, replicate flasks from the OLIGO-treatment were used to enumerate cell content, as this varied among treatments over the initial 24-hour exposure. This was done so that the effect of treatment with olaparib could be ascertained based on the cell population that was present at the time of initiation of exposure to olaparib. Exposure to the olaparib was initiated by addition of 0.2-volume of a preparation of the drug, at 6× final concentration in growth medium, to the fresh drug-free medium on the cells (1 ml of drug into 5 ml of medium). Following a further 4-day incubation, the proliferation of the treated cells (fold-increase in cell number) was calculated as a percentage of that of control cells. Cell numbers were enumerated on an electronic particle counter (Beckman Coulter, Mississauga, ON). As indicated in Example 1, for the purpose of determining the anti-proliferative effect of antisense OLIGOs alone, the proliferation of cells treated with antisense OLIGOs was calculated as a percent of that of cells treated with an equivalent concentration of non-complementary control OLIGO (in this case OLIGO 32). However, for the purpose of determining the anti-proliferative effect of olaparib against antisense or non-complementary (control) OLIGO-treated cells, the proliferation was calculated as a percent of cells treated with the respective OLIGO.
These experiments were carried out essentially as described in Example 3, with the following changes. The drug tested was cisplatin instead of olaparib, and cisplatin was tested in concentrations ranging from 0.5 μM to 2 μM.
These experiments were carried out essentially as described in Example 3, with the following changes. The drug tested was melphalan in concentrations ranging from 2 μM to 10 μM.
These experiments were carried out essentially as described in Example 3, with the following changes. The drug tested was carboplatin at concentrations ranging from 5 μM to 40 μM.
These experiments were carried out essentially as described in Example 3, with the following changes. The drug tested was oxaliplatin was tested in concentrations ranging from 0.2 μM to 2.5 μM.
Cisplatin was added to the final concentration indicated, and as described in Example 3. Cells were incubated for 4 days, at which time cell number was counted. Proliferation was calculated as a percent of siRNA-treated, non-cisplatin-treated controls.

Entries after “also recorded” stand apart in the source; their conditions may differ. Read-outs that look alike come from different tables or passages of the source. d = 2'-deoxy (DNA); m = 2'-O-methyl

Consider “5′-ugcccgATACACAAacgcug -3′ (UGCCCGATACACAAACGCUG; gapmer, lower-case wings modified, type not given here) [BR3]”, for which, in series [1] (10 nM of BR3, vs equivalent concentration of OLIGO 491S), the relative proliferation entry was “approximately 85%”. Also, in [1] (A549/A549b cells, 4 h transfection, counted after 4 d, vs non-targeting control OLIGO), the “anti-proliferative effect as single agent” value was “inhibit proliferation of human non-small cell lung cancer A549 cells in a concentration-dependent manner; also recorded: antiproliferative on its own”.
On to “5′-gccaguGGCAACATccuuaa-3′ (antisense GCCAGUGGCAACATCCUUAA; sugars from the 5' end m6 d8 m6, all phosphorothioate, methylation of C not given here) [OLIGO 83]”, for which the “effect on BRCA2 mRNA level” value in [2] is “no significant effect on BRCA2 mRNA”. In series [1] (20 nM OLIGO 83, vs OLIGO 491S), the relative proliferation result is reported as “approximately 20%”. The “effect on TS mRNA level” value in series [3] is on record as “reduction in TS mRNA”.
As to `O=C(c1cc(Cc2n[nH]c(=O)c3ccccc23)ccc1F)N1CCN(C(=O)C2CC2)CC1` [olaparib, reference compound], the “response to olaparib after two treatments” value in [4] is “remained sensitive to olaparib even after two treatments”. The “response to initial olaparib treatment” value in series [5] (1° olaparib) is “sensitive to initial treatment with olaparib”. Further, the “response to second olaparib treatment” value in series [5] (2° olaparib) was “completely unresponsive to a second treatment”. Besides, the “effect of olaparib on proliferation” value in [6] is listed as “no effect on SKOV-3 proliferation”. Besides, the results for the decreased the proliferation in series [7] and in [8] were 94%±4.6% and 39%±6.8%, respectively. Besides, the IC50 in series [9] (in the absence of BR1 (control OLIGO 32)) was approximately 5 µM; in series [9] (in the presence of BR1 pretreatment) it was approximately 0.05 µM.
On to 5′-UUAUCCAGGACAUCACUGC-3′ [RADb], for which, in series [1] (siRNA at 2 nM, FIG. 21), the “inhibited proliferation of A549b cells” value is given as “over 50%”.
